In the assay the target is T1, human GYS1 (glycogen synthase) (Homo sapiens, UniProt P13807).
T1 construct: made in house; host or cells: HEK293T
T1 sequence (P13807 1-737): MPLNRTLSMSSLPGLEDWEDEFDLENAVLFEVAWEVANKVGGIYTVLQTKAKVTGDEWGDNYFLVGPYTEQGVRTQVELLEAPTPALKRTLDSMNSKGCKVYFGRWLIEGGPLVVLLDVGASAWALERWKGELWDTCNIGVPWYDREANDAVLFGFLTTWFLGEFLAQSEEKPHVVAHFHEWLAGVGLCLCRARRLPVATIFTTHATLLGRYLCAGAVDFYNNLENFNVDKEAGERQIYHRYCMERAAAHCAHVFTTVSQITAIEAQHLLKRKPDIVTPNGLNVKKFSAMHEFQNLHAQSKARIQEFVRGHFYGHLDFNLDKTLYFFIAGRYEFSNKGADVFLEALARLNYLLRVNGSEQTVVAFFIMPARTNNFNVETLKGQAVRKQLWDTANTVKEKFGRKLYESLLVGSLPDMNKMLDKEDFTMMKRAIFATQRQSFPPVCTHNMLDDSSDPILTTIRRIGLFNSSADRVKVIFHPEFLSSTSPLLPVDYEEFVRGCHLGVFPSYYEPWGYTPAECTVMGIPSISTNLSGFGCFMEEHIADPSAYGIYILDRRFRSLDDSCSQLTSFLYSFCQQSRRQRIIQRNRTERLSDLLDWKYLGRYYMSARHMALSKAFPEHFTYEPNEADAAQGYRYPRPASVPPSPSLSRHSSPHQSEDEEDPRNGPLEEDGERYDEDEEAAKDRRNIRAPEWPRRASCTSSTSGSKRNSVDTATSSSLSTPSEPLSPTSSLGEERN
Description: Measurement of glycogen synthase activity. The assay is classed as biochemical. The following applies: concentration causing 50% increase in relative activity; 100% = compound of Example 1 of WO/2011/058154 at 10 μM; 10 mM Glucose-6-phosphate; 37° C. for 25 minutes (Examples 1 to 61 and 67 to 82) or 20 minutes (Examples 62 to 66); absorbance at 340 nm. An outline of the steps:
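Human GYS1 from transfected HEK293T cells (re-dissolved 16000×g pellet) was reacted at 37 °C for 25 or 20 min in glycylglycine pH 7.3 with glucose-6-phosphate, glycogen and UDP-glucose. PK/LDH-coupled NADH read-out at 340 nm; EC50 from activity relative to a reference activator at 10 μM final (100%).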

Counter-ions that a name gives are not always drawn.

On to `CSc1cc(F)c(F)cc1-c1ccc(OCc2cccc(C(=O)N3C[C@H](N(C)C)C[C@H]3C(=O)O)c2)cc1` [Example 63, (2S,4R)-1-[3-[[4-(4,5-Difluoro-2-methylsulfanyl-phenyl)phenoxy]methyl]benzoyl]-4-(dimethylamino)pyrrolidine-2-carboxylic Acid Trifluoroacetate], for which the EC50 came out at 17 nM. To `COC[C@@H]1CC[C@@H](C(=O)O)N1C(=O)c1cccc(COc2ccc(-c3cc(F)c(F)cc3SC)cc2)c1` [Example 62, (2S,5S)-1-[3-[[4-(4,5-Difluoro-2-methylsulfanyl-phenyl)phenoxy]methyl]benzoyl]-5-(methoxymethyl)pyrrolidine-2-carboxylic Acid] belongs 17 nM.

These data come from US20160046592A1, “PHARMACEUTICAL COMPOSITION FOR THE TREATMENT OF DIABETES” (Ajinomoto Co., Inc., priority 2013, published 2016).
